The text below walks through data of ChEMBL document CHEMBL1201862, “PubChem BioAssay data set” (2004).

Structures can show the parent of a compound that is named as a salt.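 Method: 48-hour compound exposure of cells in 96-well plates, five concentrations, linear interpolation of endpoints. Here, GI50 denotes the concentration required for 50% inhibition of growth.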 Calls of active or inactive are those of the source. Rule as the data show it: active = GI50 up to about 1.1 µM and inactive = higher.

Test systems include A498; COLO 205; SK-MEL-28; HOP-92; HOP-18; CAKI-1; M19-MEL; UO-31; LXFL 529; NCI-H23; RXF 393; CCRF-CEM; OVCAR-4; LOX IMVI; SK-MEL-2; HT-29; K562.
Holding throughout (test): DTP human tumour cell line panel, 48 h

One may read the GI50 as the concentration that inhibits growth by half. As to `Oc1cc(-c2ccccc2)nc2cc(Cl)ccc12`, the GI50 with A498 is 1.35 µM (inactive); in the experiment with COLO 205, 0.697 µM (active); with SK-MEL-28, 17.9 µM (inactive); in the experiment on HOP-92, 0.376 µM (active); with HOP-18 it was 11.2 µM (inactive); in the experiment with CAKI-1, 0.283 µM (active). In addition, the 50% growth inhibitory concentration (GI50) with M19-MEL is 0.575 µM (active); in the experiment on UO-31 it was 5.06 µM (inactive); in the experiment on LXFL 529, 0.805 µM (active); with NCI-H23, 1.1 µM (active); in the experiment on RXF 393, 0.157 µM (active); in the experiment on CCRF-CEM it was 0.432 µM (active). Also, the GI50 with OVCAR-4 is 9.14 µM (inactive); in the experiment on LOX IMVI, 0.869 µM (active); with SK-MEL-2 it was 0.445 µM (active); in the experiment on HT-29 it was 2 µM (inactive); in the experiment with K562, 0.382 µM (active).
As for `Cc1nccc2c1[nH]c1cc(O)ccc12` [HARMOL HYDROCHLORIDE], the GI50 was 63.4 µM (inactive) in the experiment on A498; > 100 µM (inactive) with COLO 205; > 100 µM (inactive) in the experiment with SK-MEL-28; 27.5 µM (inactive) with HOP-92; 38 µM (inactive) in the experiment on HOP-18; 41.1 µM (inactive) in the experiment with CAKI-1. For the same compound, the GI50 in the experiment with M19-MEL is > 100 µM (inactive); in the experiment on UO-31, 37.6 µM (inactive); in the experiment on LXFL 529 it was > 100 µM (inactive); with NCI-H23, 76.7 µM (inactive); in the experiment with RXF 393 it was > 100 µM (inactive); in the experiment with CCRF-CEM, 38.5 µM (inactive). Moreover, the GI50 with OVCAR-4 is > 100 µM (inactive); in the experiment on LOX IMVI, 45.6 µM (inactive); in the experiment with SK-MEL-2 it was > 100 µM (inactive); in the experiment on HT-29 it was 56.5 µM (inactive); with K562, 37.1 µM (inactive).
Take `O=c1/c(=C/c2ccc(Cl)cc2Cl)sc2nc3ccccc3n12`: the GI50 with A498, with COLO 205, with SK-MEL-28, in the experiment on HOP-92, in the experiment on HOP-18 and in the experiment with CAKI-1 was > 100 µM (inactive) in each case. Further, the GI50 with M19-MEL, in the experiment with UO-31, in the experiment with LXFL 529, with NCI-H23, in the experiment with RXF 393 and in the experiment on CCRF-CEM was > 100 µM (inactive) throughout. Besides, the GI50 in the experiment on OVCAR-4, in the experiment on LOX IMVI, in the experiment with SK-MEL-2, in the experiment with HT-29 and with K562 was > 100 µM (inactive) in each case.
Take `CC(C)/C=C1\CCC(CN2CCCC2)C1=O` (stereo not drawn): the GI50 in the experiment on A498 is > 42.3 µM (inactive); in the experiment with COLO 205, 7.05 µM (inactive); with SK-MEL-28, 17.5 µM (inactive); in the experiment on HOP-92, 17.5 µM (inactive); in the experiment with HOP-18, 7.73 µM (inactive); in the experiment with CAKI-1, 5.16 µM (inactive). Besides, the GI50 with M19-MEL is 24.1 µM (inactive); in the experiment on UO-31 it was 18.5 µM (inactive); in the experiment on LXFL 529, 3.03 µM (inactive); in the experiment with NCI-H23 it was 16.7 µM (inactive); in the experiment on RXF 393 it was 16 µM (inactive); in the experiment with CCRF-CEM, 3.48 µM (inactive). In addition, the GI50 in the experiment on OVCAR-4 was 17.6 µM (inactive); in the experiment with LOX IMVI, 19.9 µM (inactive); in the experiment on SK-MEL-2 it was 20.7 µM (inactive); with HT-29 it was 9.73 µM (inactive); with K562, 2.69 µM (inactive).
